Experiments:
[1] = molecular target: T1, Carbonic anhydrase (Sigma C3640) (Bos taurus, UniProt P00921); assay: SPR (BIACORE S51) sequential injection kinetics, inhibitors binding to immobilized carbonic anhydrase
T1 construct: purchased Sigma C3640
Experimental: Kinetic analysis was performed by injecting inhibitors in 10 mM PBS buffer with 0.005% P20 and 5% DMSO at a flow of 30 μl/min.

Thrombin (Sigma T 1063) = Thrombin (Sigma T 1063) (Homo sapiens, UniProt P00734); conditions: ligand densities approx. 2300 and 600 RU; 10 mM PBS, 0.005% P20, 5% DMSO, 3.4 mM EDTA

T1 sequence (P00921 whole entry): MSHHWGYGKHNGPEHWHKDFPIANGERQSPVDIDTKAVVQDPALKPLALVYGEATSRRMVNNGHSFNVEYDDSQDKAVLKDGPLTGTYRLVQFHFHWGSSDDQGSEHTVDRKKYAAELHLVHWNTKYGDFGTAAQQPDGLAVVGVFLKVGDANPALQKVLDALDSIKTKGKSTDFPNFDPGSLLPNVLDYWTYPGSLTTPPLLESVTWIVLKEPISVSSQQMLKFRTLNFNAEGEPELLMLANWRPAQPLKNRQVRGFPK

| SMILES | kon ([1]; read-out: ka) | kd ([1]; two ligand densities, approx. 2000 and 700 RU, 10 mM PBS, 0.005% P20, 5% DMSO) | ka (Thrombin (Sigma T 1063)) | kd (Thrombin (Sigma T 1063)) |
| --- | --- | --- | --- | --- |
| NS(=O)(=O)c1ccccc1 [benzenesulfonamide] | 160000 M⁻¹ s⁻¹ | 0.14 s⁻¹ |  |  |
| N=C(N)c1ccc(CNC(=O)[C@@H]2CCN2C(=O)[C@H](NCC(=O)O)C2CCCCC2)cc1 [melagatran] |  |  | 2e+07 M⁻¹ s⁻¹ | 0.018 s⁻¹ |
